Test [1] deals with Mycobacterium tuberculosis. Description: Antitubercular activity against Mycobacterium tuberculosis H37Rv ATCC 27294 using GAST/Fe medium after 1 week in absence of guanine by broth microdilution method. It counts as functional. As to conditions: H37Rv ATCC 27294, 168 h.
For test [2], the target named is Inosine-5'-monophosphate dehydrogenase 2 (Homo sapiens, UniProt P12268). As to the kind of experiment: Inhibition of human IMPDH2 using IMP as substrate by spectrophotometric method. As to conditions: read-out: Ki(app).
Test [3] has as its system Mycobacterium tuberculosis. As to the kind of experiment: Antitubercular activity against Mycobacterium tuberculosis H37Rv ATCC 27294 using 7H9/ADC/Tween medium after 1 week in presence of guanine by broth microdilution method. It counts as functional. As to conditions: H37Rv ATCC 27294, 168 h. On the technique in general: In broth dilution the organism is exposed to a series of concentrations in liquid medium.

For test [4], the system named is Mycobacterium tuberculosis. Description: Antitubercular activity against Mycobacterium tuberculosis H37Rv ATCC 27294 using GAST/Fe medium after 1 week in presence of guanine by broth microdilution method. The settings on record: H37Rv ATCC 27294, 168 h. It counts as functional.
Test [5] has as its target T1, GMP reductase 2 (Homo sapiens, UniProt Q9P2T1).
T1 sequence (Q9P2T1 whole entry): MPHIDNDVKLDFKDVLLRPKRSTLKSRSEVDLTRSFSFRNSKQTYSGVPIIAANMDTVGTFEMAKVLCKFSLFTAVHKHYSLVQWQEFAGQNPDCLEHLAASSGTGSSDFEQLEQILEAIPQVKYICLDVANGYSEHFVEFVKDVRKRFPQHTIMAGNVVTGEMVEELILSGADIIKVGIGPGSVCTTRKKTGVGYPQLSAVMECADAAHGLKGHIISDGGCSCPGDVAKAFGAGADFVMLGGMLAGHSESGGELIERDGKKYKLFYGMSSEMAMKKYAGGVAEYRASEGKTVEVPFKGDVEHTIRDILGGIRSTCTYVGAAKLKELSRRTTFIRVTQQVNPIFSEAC
Description: Inhibition of human GMPR2 using GMP as substrate by spectrophotometric method. As to conditions: read-out: Ki(app).

Test [6] has as its system Mycobacterium tuberculosis. Description: Antitubercular activity against Mycobacterium tuberculosis H37Rv ATCC 27294 using 7H9/ADC/Tween medium after 1 week in absence of guanine by broth microdilution method. It counts as functional. As to conditions: H37Rv ATCC 27294, 168 h.
Test [7] deals with Mycobacterium tuberculosis. Description: Antitubercular activity against Mycobacterium tuberculosis H37Rv ATCC 27294 using GAST/Fe medium after 2 weeks in absence of guanine by broth microdilution method. The format is functional, organism-based.

The text below walks through data of ChEMBL document CHEMBL4184333, “Expanding Benzoxazole-Based Inosine 5'-Monophosphate Dehydrogenase (IMPDH) Inhibitor Structure-Activity As Potential Antituberculosis Agents” (J Med Chem, 2018).

Structures are written as SMILES. Values after ≈ are worked out from the molar mass of the structure shown. Active and inactive are the calls of the source. The calls are words filed in the database; no cut-off is given here.

In general, MIC refers to the least concentration at which growth counts as inhibited. Take `C[C@H](Oc1cccc(Cl)c1Cl)C(=O)Nc1ccc2oc(-c3ccc(OC(F)(F)F)cc3)nc2c1`: the MIC in test [1], in test [3], in test [4] and in test [6] was above 50 µM each time. For the same compound, the Ki in test [2] and in test [5] was above 5 µM each time.
As to `C[C@H](Oc1cccc2c1B(O)OC2)C(=O)Nc1ccc2oc(-c3ccc(C#N)cc3)nc2c1`, the Ki in test [2] and in test [5] was above 5 µM in each case.
Turning to `C[C@H](Oc1cccc(F)c1C#N)C(=O)Nc1ccc2oc(-c3ccncc3)nc2c1`, the MIC was 6 µM (≈ 2.41 µg/mL) in test [1], 8 µM in test [3], 11 µM in test [4] and 4 µM (≈ 1.61 µg/mL) in test [6]. The Ki in test [2] and in test [5] was above 5 µM in each case.
As for `C[C@H](Oc1cccc(Cl)c1Cl)C(=O)Nc1ccc2oc(-c3ccc(C(=O)NN)cc3)nc2c1`, the Ki in test [2] and in test [5] was above 5 µM each time.
`C[C@H](Oc1cccc(Cl)c1Cl)C(=O)Nc1ccc2oc(-c3ccc(-c4noc(=O)[nH]4)cc3)nc2c1`: the Ki in test [2] and in test [5] was above 5 µM in each case.
As to `C[C@H](Oc1cccc(F)c1F)C(=O)Nc1ccc2oc(-c3ccc(O)cc3)nc2c1`, the MIC in test [1] was 6 µM (≈ 2.46 µg/mL); in test [3], above 30 µM; in test [4] it was 19 µM; in test [6] it was 7 µM (≈ 2.87 µg/mL). Moreover, the Ki in test [2] and in test [5] was above 5 µM throughout.
In the case of `C[C@H](Oc1cccc(Cl)c1Cl)C(=O)Nc1ccc2oc(-c3ccc(C(N)=O)cc3)nc2c1`, the Ki in test [2] and in test [5] was above 5 µM each time.
With `COc1ccc(-c2nc3cc(NC(=O)[C@H](C)Oc4cccc(F)c4F)ccc3o2)cn1`, the MIC in test [1] was 6 µM (≈ 2.55 µg/mL); in test [3], above 50 µM; in test [4], 8 µM; in test [6], above 50 µM. Moreover, the Ki in test [2] and in test [5] was above 5 µM in each case.
`C[C@H](Oc1ccc(F)c(F)c1F)C(=O)Nc1ccc2oc(-c3ccc(C#N)cc3)nc2c1`: the MIC in test [1], in test [3], in test [4] and in test [6] was above 50 µM throughout. Further, the Ki in test [2] and in test [5] was above 5 µM throughout.
As to `C[C@H](Oc1cccc(Cl)c1Cl)C(=O)Nc1ccc2oc(-c3cccc(O)c3)nc2c1`, the Ki in test [2] and in test [5] was above 5 µM throughout.
For the compound `C[C@H](Oc1cccc(Cl)c1Cl)C(=O)Nc1ccc2oc(-c3cccc(OCC(=O)O)c3)nc2c1`, the Ki in test [2] and in test [5] was above 5 µM throughout.
On to `COc1ccc(-c2nc3cc(NC(=O)[C@H](C)Oc4cccc(F)c4F)ccc3o2)cc1`, for which the MIC was 5 µM (≈ 2.12 µg/mL) in test [1], 14 µM in test [3], 8 µM in test [4] and 4 µM (≈ 1.7 µg/mL) in test [6]. Moreover, the Ki in test [2] and in test [5] was above 5 µM throughout.
In the case of `COc1ccc(-c2nc3cc(NC(=S)[C@H](C)Oc4cccc(Cl)c4Cl)ccc3o2)cc1`, the MIC was 37 µM (≈ 17.5 µg/mL) in test [1], above 50 µM in test [3], above 50 µM in test [4] and above 50 µM in test [6]. Besides, the Ki in test [2] and in test [5] was above 5 µM each time.
In the case of `C[C@H](Oc1cccc(Cl)c1Cl)C(=O)Nc1ccc2oc(-c3ccc(C#N)cc3)nc2c1`, the MIC was determined as 4 µM (≈ 1.81 µg/mL) in test [1], 6 µM in test [3], 5 µM in test [4] and 3 µM (≈ 1.36 µg/mL) in test [6]. Further, the figures for the Ki in test [2] and in test [5] were 2.3 µM and above 5 µM, respectively.
For `C[C@H](Oc1cccc(Cl)c1Cl)C(=O)Nc1ccc2oc(-c3ccc(O)cc3)nc2c1`, the Ki in test [2] and in test [5] was above 5 µM each time.
As for `C[C@H](Oc1cccc(F)c1F)C(=O)Nc1ccc2oc(-c3ccc(F)cc3)nc2c1`, the MIC in test [1], in test [3], in test [4] and in test [6] was above 50 µM throughout. Besides, the Ki in test [2] and in test [5] was above 5 µM each time.
Consider `C[C@H](Oc1cccc(Cl)c1Cl)C(=O)Nc1ccc2oc(-c3ccc(/C(N)=N\O)cc3)nc2c1`, for which the MIC in test [1] is 25 µM (≈ 12.1 µg/mL); in test [3] it was above 50 µM; in test [4], 25 µM; in test [6] it was above 50 µM. Moreover, the Ki in test [2] and in test [5] was above 5 µM throughout.
Regarding `COc1ccc(-c2cn3cc(NC(=O)[C@H](C)Oc4cccc(Cl)c4Cl)ccc3n2)cc1`, the Ki in test [2] and in test [5] was above 5 µM each time.
As to `COc1ccc(Cc2nc3cc(NC(=O)[C@H](C)Oc4cccc(Cl)c4Cl)ccc3o2)cc1`, the Ki in test [2] and in test [5] was above 5 µM each time.
Regarding `C[C@H](Oc1cccc(Cl)c1Cl)C(=O)Nc1ccc2oc(-c3ccc(C(=O)NO)cc3)nc2c1`, the result in test [7] was Active. Also, the MIC was 3 µM (≈ 1.46 µg/mL) in test [1], above 50 µM in test [3], 6 µM in test [4] and 30 µM (≈ 14.6 µg/mL) in test [6]. The Ki in test [2] and in test [5] was above 5 µM throughout.
With `C[C@H](Oc1ccccc1O)C(=O)Nc1ccc2oc(-c3ccc(C#N)cc3)nc2c1`, the MIC in test [1] came out at 22 µM (≈ 8.79 µg/mL); in test [3], 22 µM; in test [4], 25 µM; in test [6], 9.4 µM (≈ 3.75 µg/mL). The Ki in test [2] and in test [5] was above 5 µM in each case.
In the case of `C[C@H](Oc1cccc(Cl)c1Cl)C(=O)Nc1ccc2oc(-c3ccc(-c4n[nH]c(=O)o4)cc3)nc2c1`, the minimum inhibitory concentration (MIC) in test [1], in test [3], in test [4] and in test [6] was above 50 µM in each case. For the same compound, the Ki in test [2] is 2.9 µM; in test [5] it was above 5 µM.
Regarding `COc1ccc(-c2nc3cc(NC(=O)[C@H](C)Oc4cccc(Cl)c4Cl)ccc3o2)cc1`, the MIC in test [1], in test [3], in test [4] and in test [6] was above 50 µM each time. The Ki in test [2] and in test [5] was above 5 µM in each case.
Consider `C[C@H](Oc1cccc(Cl)c1Cl)C(=O)Nc1ccc2oc(-c3ccncc3)nc2c1`, for which the MIC in test [1] amounted to 9.4 µM (≈ 4.03 µg/mL); in test [3] it was 28 µM; in test [4] it was 37 µM; in test [6] it was 16 µM (≈ 6.85 µg/mL). Further, the Ki in test [2] and in test [5] was above 5 µM in each case.
For the compound `CCOC(=O)COc1cccc(-c2nc3cc(NC(=O)[C@H](C)Oc4cccc(Cl)c4Cl)ccc3o2)c1`, the MIC in test [1] is 0.9 µM (≈ 0.476 µg/mL); in test [3], 1.6 µM; in test [4] it was 1.4 µM; in test [6] it was 1.6 µM (≈ 0.847 µg/mL). For the same compound, the Ki in test [2] and in test [5] was above 5 µM in each case.
`COC(=O)c1ccc(-c2nc3cc(NC(=O)[C@H](C)Oc4cccc(Cl)c4Cl)ccc3o2)cc1`: the Ki in test [2] and in test [5] was above 5 µM in each case.
For `C[C@H](Oc1cccc(Cl)c1Cl)C(=O)Nc1ccc2oc(-c3ccc(CN)cc3)nc2c1`, the MIC in test [1] is 11 µM (≈ 5.02 µg/mL); in test [3] it was 25 µM; in test [4], 11 µM; in test [6], 25 µM (≈ 11.4 µg/mL). In addition, the Ki in test [2] and in test [5] was above 5 µM throughout.
On to `COc1ccc(-c2nc3cc(NC(=O)[C@H](C)Oc4cccc(Cl)c4Cl)ccc3o2)cn1`, for which the MIC is 7 µM (≈ 3.21 µg/mL) in test [1], above 25 µM in test [3], 9 µM in test [4] and 6 µM (≈ 2.75 µg/mL) in test [6]. Moreover, the Ki in test [2] and in test [5] was above 5 µM in each case.
Take `C[C@H](Nc1cccc(Cl)c1Cl)C(=O)Nc1ccc2oc(-c3ccncc3)nc2c1`: the MIC in test [1] is 6.7 µM (≈ 2.86 µg/mL); in test [3], 35 µM; in test [4], 50 µM; in test [6], 12 µM (≈ 5.13 µg/mL). For the same compound, the Ki in test [2] and in test [5] was above 5 µM each time.
As to `C[C@H](Oc1cccc(Cl)c1Cl)C(=O)Nc1ccc2oc(-c3cc[n+]([O-])cc3)nc2c1`, the Ki in test [2] and in test [5] was above 5 µM each time.
As to `C[C@H](Oc1ccccc1C#N)C(=O)Nc1ccc2oc(-c3ccncc3)nc2c1`, the Ki in test [2] and in test [5] was above 5 µM each time.
For `C[C@H](Oc1cccc(Cl)c1Cl)C(=O)Nc1ccc2oc(-c3ccc(F)cc3)nc2c1`, the MIC in test [1], in test [3], in test [4] and in test [6] was above 50 µM each time. Further, the Ki in test [2] and in test [5] was above 5 µM in each case.
For `C[C@H](Oc1cccc(Cl)c1Cl)C(=O)Nc1ccc2oc(-c3ccccc3O)nc2c1`, the Ki in test [2] and in test [5] was above 5 µM in each case.
On to `COc1ccc(-c2nc3cc(NC(=O)[C@H](C)Oc4ccccc4CN)ccc3o2)cc1`, for which the MIC in test [1] was 9.4 µM (≈ 3.92 µg/mL); in test [3] it was 9.4 µM; in test [4] it was 16 µM; in test [6], 5.5 µM (≈ 2.3 µg/mL). Moreover, the Ki in test [2] and in test [5] was above 5 µM in each case.
With `C[C@H](Oc1ccccc1OCc1ccccc1)C(=O)Nc1ccc2oc(-c3ccc(C#N)cc3)nc2c1`, the Ki in test [2] and in test [5] was above 5 µM each time.
